This note sets out measurements from PubChem BioAssay AID743472 (Broad Institute, 2014).

Where “and” joins values, the source holds several entries; their conditions need not be identical. Equal values may be shown once. Calls of active or inactive are those of the source.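 Rule for the calls: active = fitted curve drops past -35% activity change at a concentration no higher than twice the top valid tested dose; inconclusive = no clear call, values can overlap the other calls; inactive = the rest, including activity opposite to the expected direction.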

In one assay the test system is A549 viability, CellTiter-Glo ATP luminescence, 72 h. In words: viability loss in A549 lung cells – cell-based, luminescence, dry powder, set 12, cytotoxicity control, dose response (AID 743472).
Conditions: not given
Regarding `Cn1cc(-c2ccncc2)c(-c2ccc(OCc3ccc4ccccc4n3)cc2)n1`, the AC35 is 19.3 µM.

As for `CC[C@]1(O)CC2CN(CCc3c([nH]c4ccccc34)[C@@](C(=O)OC)(c3cc4c(cc3OC)N(C=O)[C@H]3[C@@](O)(C(=O)OC)[C@H](OC(C)=O)[C@]5(CC)C=CCN6CC[C@]43[C@@H]65)C2)C1` (stereo partly specified), the AC35 is 0.285 µM.

With `COc1ccc(C2=Nn3c(nnc3-c3ccccc3F)SC2)cc1OC`, the AC35 was 6.11 µM.

As for `C[C@@]1(C(=O)Nc2ccc(F)nc2)CCCN1c1nc(Nc2cc(C3CC3)[nH]n2)c2cccn2n1`, the AC35 was 3.48 µM.

Turning to `N#Cc1ccc(-c2ccc3c(c2)[C@H]2[C@H](CCN2S(=O)(=O)c2ccccc2F)[C@@H](CO)N3)cc1`, the AC35 is 17 µM.

Turning to `CN(C)c1ccc2c(c1)OC(N)=C(C#N)C2c1cccc(F)c1` (stereo unspecified), the AC35 is 0.0738 µM.

With `COc1ccc(S(=O)(=O)N2CC[C@@H]3[C@@H](CO)Nc4ccc(-c5ccc(C#N)cc5)cc4[C@@H]32)cc1`, the AC35 was 9.8 µM.

With `Nc1ncnc2c1c(-c1cccc(OCc3ccccc3)c1)cn2C1CC(CN2CCCC2)C1` (stereo unspecified), the AC35 is 13.7 µM.

`COc1ccccc1-c1nnc2n1N=C(c1ccc3c(c1)OCO3)CS2`: the AC35 is 0.102 µM.

For the molecule `Clc1ccccc1-c1nnc2n1N=C(c1ccc3c(c1)OCO3)CS2`, the AC35 is 0.945 µM.

On to `COc1cc(C2C(C#N)=C(N)Oc3cc(N(C)C)ccc32)cc2c1OCO2` (stereo unspecified), for which the AC35 was 0.0402 µM.

For the molecule `N#CC1=C(N)Oc2cc(O)ccc2C1c1cccc(Br)c1` (stereo unspecified), the AC35 is 11.4 µM.

`COc1ccc(OC)c(-c2nnc3n2N=C(c2ccc(OC)c(OC)c2)CS3)c1`: the AC35 was 0.192 µM and 0.123 µM.

On to `CCc1c2c(nc3ccc(O)cc13)-c1cc3c(c(=O)n1C2)COC(=O)C3(O)CC` (stereo unspecified), for which the AC35 was 0.579 µM.

For `Cc1nc(Nc2ncc(C(=O)Nc3c(C)cccc3Cl)s2)cc(N2CCN(CCO)CC2)n1`, the AC35 was 12.2 µM.

As for `COc1ccc(-c2ccc3c(c2)[C@H]2[C@H](CCN2S(=O)(=O)c2ccc(OC)cc2)[C@@H](CO)N3C)cc1`, the AC35 is 9.11 µM.

For the molecule `CN1c2ccc(-c3ccc(C#N)cc3)cc2[C@H]2[C@H](CCN2S(=O)(=O)c2cccc(F)c2)[C@H]1CO`, the AC35 was 6.56 µM.

On to `COc1ccccc1S(=O)(=O)N1CC[C@@H]2[C@@H](CO)Nc3ccc(-c4ccc(C#N)cc4)cc3[C@@H]21`, for which the AC35 is 22.6 µM.

For `COc1cccc(C2C(C#N)=C(N)Oc3cc(N)ccc32)c1` (stereo unspecified), the AC35 is 4.76 µM.

For the molecule `N#CC1=C(N)Oc2cc(N)ccc2C1c1cccc(F)c1` (stereo unspecified), the AC35 was 10.8 µM.

Regarding `COc1ccc(-c2cc(NC=O)c3ncc(-c4ccc(OC)c(OC)c4)n3c2)cc1`, the AC35 is 1.18 µM.

Consider `COc1cccc2c1C(=O)c1c(O)c3c(c(O)c1C2=O)C[C@@](O)(C(=O)CO)C[C@@H]3O[C@H]1C[C@H](N)[C@H](O)[C@H](C)O1`, for which the AC35 was 0.333 µM.

For the molecule `COc1ccc(-c2ccc3c(c2)[C@H]2[C@H](CCN2S(=O)(=O)c2ccc(OC)cc2)[C@@H](CO)N3)cc1`, the AC35 is 12.5 µM.

For `C=C([C@@H](O)[C@@H](C)O)[C@@H](OC)[C@]1(C)Cc2cc3cc(O[C@H]4CC(OC5CC(O)C(O)C(C)O5)C(O)C(C)O4)cc(O)c3c(O)c2C(=O)[C@H]1OC1CC(OC2CC(OC3CC(C)(O)C(O)C(C)O3)C(O)C(C)O2)C(O)C(C)O1` (stereo partly specified), the AC35 was 0.111 µM.

Regarding `O=C(Cc1ccc(-c2ccc(OCCN3CCOCC3)cc2)cn1)NCc1ccccc1`, the AC35 was 0.0854 µM.

Take `N#Cc1ccc(-c2ccc3c(c2)[C@H]2[C@H](CCN2S(=O)(=O)c2cccc(F)c2)[C@@H](CO)N3)cc1`: the AC35 was 21.4 µM.

For `COc1ccc(S(=O)(=O)N2CC[C@@H]3[C@H](CO)Nc4ccc(-c5ccc(C#N)cc5)cc4[C@@H]32)cc1`, the AC35 is 10.7 µM.

With `COc1ccc(C2=Nn3c(nnc3-c3ccccc3OC)SC2)cc1OC`, the AC35 is 0.205 µM.

Turning to `COc1ccccc1-c1nnc2n1N=C(c1ccc(O)c(O)c1)CS2`, the AC35 was 0.314 µM.

With `COc1cccc(S(=O)(=O)N2CC[C@@H]3[C@@H](CO)Nc4ccc(-c5ccc(C#N)cc5)cc4[C@@H]32)c1`, the AC35 was 26.4 µM.

`N#CC1=C(N)Oc2cc(N)ccc2C1c1ccc2ccccc2c1` (stereo unspecified): the AC35 is 28.4 µM.

Turning to `COc1ccc(C2=Nn3c(nnc3-c3ccccc3Cl)SC2)cc1OC`, the AC35 is 3.06 µM.

As to `N#CC1=C(N)Oc2cc(OC(=O)c3ccccc3)ccc2C1c1cccc(Br)c1` (stereo unspecified), the AC35 was 19.4 µM.

For `COc1ccc(C(=O)CC2(O)C(=O)Nc3c(Cl)ccc(Cl)c32)cc1` (stereo unspecified), the AC35 is 5.48 µM.

As to `COc1ccc(-c2cc(NC(C)=O)c3ncc(-c4ccc(OC)c(OC)c4)n3c2)cc1`, the AC35 was 29.9 µM.

Regarding `N#CC1=C(N)Oc2cc3c(cc2C1c1cccc(Br)c1)OCO3` (stereo unspecified), the AC35 was 0.0624 µM.

As for `CC(C)N1c2ccccc2C(c2ccc(F)cc2)C1/C=C/C(O)CC(O)CC(=O)O` (stereo unspecified), the AC35 is 23.9 µM.

Take `Nc1ccn([C@@H]2O[C@H](CO)[C@H](O)C2O)c(=O)n1` (stereo partly specified): the AC35 is 0.686 µM.

On to `N#CC1=C(N)Oc2cc(N)ccc2C1c1ccccc1Cl` (stereo unspecified), for which the AC35 was 32.9 µM.

As to `N#CC1=C(N)Oc2cc(N)ccc2C1c1cccc(Br)c1` (stereo unspecified), the AC35 is 0.488 µM.

For `Cc1cccc(C2C(C#N)=C(N)Oc3cc(N)ccc32)c1` (stereo unspecified), the AC35 is 3.89 µM.

`N#CC1=C(N)Oc2ccc3ccccc3c2C1c1cccc(F)c1` (stereo unspecified): the AC35 was 3.88 µM.

Take `CCOC(=O)CCNc1cc(N2CCc3ccccc3CC2)nc(-c2ccccn2)n1`: the AC35 was 37.2 µM.

With `COc1ccc(S(=O)(=O)N2CC[C@@H]3[C@@H](CO)Nc4ccc(-c5cccc(C#N)c5)cc4[C@@H]32)cc1`, the AC35 was 13.2 µM.

In the case of `Cc1c([C@H](C(Cl)Cl)[C@H](O)[C@H]2C[C@H](C)C(=O)O2)ccc2c1C(=O)[C@H]1[C@H]2C[C@@H](Br)[C@@]23O[C@@H](CO[C@H]2O)C[C@]13C`, the AC35 was 3.44 µM.

For the molecule `Cc1cc(Nc2cc(N3CCN(C)CC3)nc(Sc3ccc(NC(=O)C4CC4)cc3)n2)n[nH]1`, the AC35 was 10.2 µM.

Consider `N#CC1=C(N)Oc2cc(N)ccc2C1c1ccccc1` (stereo unspecified), for which the AC35 is 22.9 µM.

Turning to `CN1CCN(CCOc2cc(OC3CCOCC3)c3c(Nc4c(Cl)ccc5c4OCO5)ncnc3c2)CC1`, the AC35 is 26.1 µM.

Take `COc1ccc(S(=O)(=O)N2CC[C@@H]3[C@@H](CO)N(C)c4ccc(-c5ccc(F)cc5)cc4[C@@H]32)cc1`: the AC35 was 7.15 µM.

Tested on in the next assay: not listed separately
The description is as above. Conditions: A549 viability, CellTiter-Glo ATP luminescence, 72 h; at 1.35 µM (top of the series). For orientation: Cellular ATP, detected with luciferase, serves as a proxy for viable cell number.
Consider `COc1cc([C@@H]2c3cc4c(cc3[C@@H](O[C@@H]3O[C@@H]5CO[C@@H](C)O[C@H]5[C@H](O)[C@H]3O)[C@H]3COC(=O)[C@H]23)OCO4)cc(OC)c1O`, for which the activity change, negative = cytotoxicity was -9.02% (inactive).

The assay is the same for the next values; noted with them: A549 viability, CellTiter-Glo ATP luminescence, 72 h; at 1.6 µM (top of the series).
On to `CCN(CCO)CCCOc1ccc2c(Nc3cc(CC(=O)Nc4cccc(F)c4)[nH]n3)ncnc2c1`, for which the activity change, negative = cytotoxicity was -5.27% (inactive).

The assay is the same for the next values; noted with them: A549 viability, CellTiter-Glo ATP luminescence, 72 h; at 3 µM (top of the series).
Regarding `CC[C@@]1(O)C(=O)OCc2c1cc1n(c2=O)Cc2cc3c(CN(C)C)c(O)ccc3nc2-1`, the activity change, negative = cytotoxicity was -28% (inactive).

The assay is the same for the next values; noted with them: A549 viability, CellTiter-Glo ATP luminescence, 72 h; at 6 µM (top of the series).
For `Clc1ccc(-c2cnc3ccc(-c4ccccc4)cn23)cc1`, the activity change, negative = cytotoxicity was 9.24% (inactive).

Staying with this assay, now noted: A549 viability, CellTiter-Glo ATP luminescence, 72 h; at 12 µM (top of the series).
For `COc1ccc(NC(=O)Nc2ccc3c(c2)C(=O)N([C@@H](C)CO)C[C@H](C)[C@H](CN(C)Cc2ccc4c(c2)OCO4)O3)cc1`, the activity change, negative = cytotoxicity is -11.8% (inactive).

Still in this assay, the particulars now being: A549 viability, CellTiter-Glo ATP luminescence, 72 h; at 13.5 µM (top of the series).
`CC(C)(O)CCc1ccc(O)c2c(=O)c3c(O)c4c(cc3oc12)O[C@H]1OC=C[C@@]41O`: the activity change, negative = cytotoxicity is -4.12% (inactive).

The assay is the same for the next values; noted with them: A549 viability, CellTiter-Glo ATP luminescence, 72 h; at 26 µM (top of the series).
As for `Cc1ccc([N+](=O)[O-])cc1S(=O)(=O)N(C)C`, the activity change, negative = cytotoxicity is -2.86% (inactive).

Regarding `COc1ccccc1C1C(C#N)=C(N)Oc2cc(N)ccc21` (stereo unspecified), the activity change, negative = cytotoxicity is 3.41% (inactive).

Consider `O=C(Nc1c(Cl)cncc1Cl)c1ccc(OC(F)F)c(OCC2CC2)c1`, for which the activity change, negative = cytotoxicity is 2.06% (inactive).

On to `COc1ccc(S(=O)(=O)N(C(C)=O)c2ccc(OC(C)=O)c3ccccc23)cc1[N+](=O)[O-]`, for which the activity change, negative = cytotoxicity was -4.12% (inactive).

As to `CCC(C)(C)C(=O)O[C@H]1C[C@@H](C)C=C2C=C[C@H](C)[C@H](CC[C@@H]3C[C@@H](O)CC(=O)O3)[C@H]21`, the activity change, negative = cytotoxicity was 2.27% (inactive).

Consider `Cc1ccc(C2C(C#N)=C(N)Oc3cc(N)ccc32)cc1` (stereo unspecified), for which the activity change, negative = cytotoxicity is 2.98% (inactive).

For the molecule `C[C@]1(c2nc3c(C(N)=O)cccc3[nH]2)CCCN1`, the activity change, negative = cytotoxicity was 8.64% (inactive).

For the molecule `N#CC1=C(N)Oc2cc(N)ccc2C1c1ccc(Cl)cc1` (stereo unspecified), the activity change, negative = cytotoxicity is -4.23% (inactive).

With `COc1ccc(C2CNC(=O)C2)cc1OC1CCCC1` (stereo unspecified), the activity change, negative = cytotoxicity was 3.58% (inactive).

Regarding `CC1(C)CC(c2nc(-c3ccc4ccc(-c5ccccc5)nc4c3)c3c(N)nccn23)C1`, the activity change, negative = cytotoxicity was -21.6% (inactive).

In the case of `N#CC1=C(N)Oc2cc(N)ccc2C12C(=O)Nc1ccc(Br)cc12` (stereo unspecified), the activity change, negative = cytotoxicity was -0.931% (inactive).

In the case of `Cc1ccc(S(=O)(=O)N2CC[C@@H]3[C@@H](CO)Nc4ccc(-c5ccc(C#N)cc5)cc4[C@@H]32)cc1`, the activity change, negative = cytotoxicity was -24.8% (inactive).

As for `COc1cc(Nc2ncc3c(n2)-c2ccc(Cl)cc2C(c2c(F)cccc2OC)=NC3)ccc1C(=O)O`, the activity change, negative = cytotoxicity was -19.8% (inactive).

The same assay, now with this note: A549 viability, CellTiter-Glo ATP luminescence, 72 h; at 50 µM (top of the series).
Consider `O=P1(NCCCl)OCCCN1CCCl` (stereo unspecified), for which the activity change, negative = cytotoxicity is 1.11% (inactive).

Staying with this assay, now noted: A549 viability, CellTiter-Glo ATP luminescence, 72 h; at 100 µM (top of the series).
`CCC(C)C(=O)OC1CC(C)C=C2C=CC(C)C(CCC(O)CC(O)CC(=O)O)C21` (stereo unspecified): the activity change, negative = cytotoxicity is -13.1% (inactive).

Staying with this assay, now noted: A549 viability, CellTiter-Glo ATP luminescence, 72 h; at 110 µM (top of the series).
Regarding `O=C(c1cc(Cc2n[nH]c(=O)c3ccccc23)ccc1F)N1CCN(C(=O)C2CC2)CC1`, the activity change, negative = cytotoxicity was -14.2% (inactive).
